Measurements reported in PubChem BioAssay AID1963848 (Molecular Pharmacology Branch, DTP, NCI, 2024).

System: 379773-124-R-J2-PDC spheroid viability
Experiment: Anticancer human tumor 379773-124-R-J2-PDC patient-derived endometrial carcinoma cell line growth inhibition [POLQ]
Conditions: spheroids with HUVEC and MSC; for IC50: curve of first compound; for viability, T/C: stronger effect = lower value
How it was run: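 Patient-derived tumour cells were co-cultured with HUVEC and mesenchymal stem cells as multicellular spheroids at 37 °C. They were treated with POLQ inhibitors (novobiocin, ART-558, RP6685) alone or combined with other agents. Top concentrations were at or near clinical Cmax (otherwise 10 microM; SN-38 at 1 microM), decreasing in half-log steps.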

[1] = second compound 0.0316 µM, first compound 0.00316 µM
[2] = second compound 0.0316 µM, first compound 0.01 µM
[3] = second compound 0.0316 µM, first compound 0.0316 µM
[4] = second compound 0.0316 µM, first compound 0.1 µM
[5] = second compound 0.1 µM, first compound 0.00316 µM
[6] = second compound 0.1 µM, first compound 0.01 µM
[7] = second compound 0.1 µM, first compound 0.0316 µM
[8] = second compound 0.1 µM, first compound 0.1 µM
[9] = second compound 0.316 µM, first compound 0.00316 µM
[10] = second compound 0.316 µM, first compound 0.01 µM
[11] = second compound 0.316 µM, first compound 0.0316 µM
[12] = second compound 0.316 µM, first compound 0.1 µM
[13] = second compound 1 µM, first compound 0.00316 µM
[14] = second compound 1 µM, first compound 0.01 µM
[15] = second compound 1 µM, first compound 0.0316 µM
[16] = second compound 1 µM, first compound 0.1 µM
[17] = second compound 3.16 µM, first compound 0.00316 µM
[18] = second compound 3.16 µM, first compound 0.01 µM
[19] = second compound 3.16 µM, first compound 0.0316 µM
[20] = second compound 3.16 µM, first compound 0.1 µM
[21] = second compound 10 µM, first compound 0.00316 µM
[22] = second compound 10 µM, first compound 0.01 µM
[23] = second compound 10 µM, first compound 0.0316 µM
[24] = second compound 10 µM, first compound 0.1 µM
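Note: spheroids exposed to drugs for seven days before readout.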
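Throughout, for viability, T/C: percent viability relative to DMSO vehicle control taken as 100%.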

C=CCn1c(=O)c2cnc(Nc3ccc(N4CCN(C)CC4)cc3)nc2n1-c1cccc(C(C)(C)O)n1 + Cc1cccc(N(C)C(=O)C2C(O)CCN2c2nc(C)cc(C(F)(F)F)c2C#N)c1
IC50 (second compound 0.0316 µM): 457 nM | IC50 (second compound 0.1 µM): 441 nM | IC50 (second compound 0.316 µM): 411 nM | IC50 (second compound 1 µM): 416 nM | IC50 (second compound 3.16 µM): 443 nM | IC50 (second compound 10 µM): 406 nM | viability, T/C [1]: 88.5% | viability, T/C [2]: 86% | viability, T/C [3]: 85.2% | viability, T/C [4]: 98% | viability, T/C (second compound 0.0316 µM, first compound 0.316 µM): 72.2% | viability, T/C (second compound 0.0316 µM, first compound 1 µM): 3.05% | viability, T/C [5]: 91.4% | viability, T/C [6]: 98.3% | viability, T/C [7]: 93.1% | viability, T/C [8]: 98.1% | viability, T/C (second compound 0.1 µM, first compound 0.316 µM): 68.8% | viability, T/C (second compound 0.1 µM, first compound 1 µM): 3.55% | viability, T/C [9]: 100% | viability, T/C [10]: 91.5% | viability, T/C [11]: 96.4% | viability, T/C [12]: 90.8% | viability, T/C (second compound 0.316 µM, first compound 0.316 µM): 63.6% | viability, T/C (second compound 0.316 µM, first compound 1 µM): 4% | viability, T/C [13]: 86.5% | viability, T/C [14]: 96.7% | viability, T/C [15]: 95.1% | viability, T/C [16]: 95.3% | viability, T/C (second compound 1 µM, first compound 0.316 µM): 64.9% | viability, T/C (second compound 1 µM, first compound 1 µM): 2.86% | viability, T/C [17]: 98.2% | viability, T/C [18]: 90.2% | viability, T/C [19]: 88.2% | viability, T/C [20]: 94% | viability, T/C (second compound 3.16 µM, first compound 0.316 µM): 69.5% | viability, T/C (second compound 3.16 µM, first compound 1 µM): 2.86% | viability, T/C [21]: 87.5% | viability, T/C [22]: 86.1% | viability, T/C [23]: 85.9% | viability, T/C [24]: 89.5% | viability, T/C (second compound 10 µM, first compound 0.316 µM): 63% | viability, T/C (second compound 10 µM, first compound 1 µM): 3.05%

CC[C@@]1(O)C(=O)OCc2c1cc1n(c2=O)Cc2cc3c(CN(C)C)c(O)ccc3nc2-1 + Cc1cccc(N(C)C(=O)C2C(O)CCN2c2nc(C)cc(C(F)(F)F)c2C#N)c1
IC50 (second compound 0.0316 µM): 24.3 nM | IC50 (second compound 0.1 µM): 21.1 nM | IC50 (second compound 0.316 µM): 22.2 nM | IC50 (second compound 1 µM): 20.2 nM | IC50 (second compound 3.16 µM): 19.5 nM | IC50 (second compound 10 µM): 16.3 nM | viability, T/C (second compound 0.0316 µM, first compound 0.000316 µM): 90.3% | viability, T/C (second compound 0.0316 µM, first compound 0.001 µM): 89.1% | viability, T/C [1]: 77.8% | viability, T/C [2]: 85.4% | viability, T/C [3]: 39.6% | viability, T/C [4]: 14.2% | viability, T/C (second compound 0.1 µM, first compound 0.000316 µM): 89.2% | viability, T/C (second compound 0.1 µM, first compound 0.001 µM): 88.6% | viability, T/C [5]: 84.1% | viability, T/C [6]: 81.9% | viability, T/C [7]: 32.9% | viability, T/C [8]: 14% | viability, T/C (second compound 0.316 µM, first compound 0.000316 µM): 87.3% | viability, T/C (second compound 0.316 µM, first compound 0.001 µM): 77.5% | viability, T/C [9]: 85.4% | viability, T/C [10]: 85.7% | viability, T/C [11]: 34.8% | viability, T/C [12]: 13.8% | viability, T/C (second compound 1 µM, first compound 0.000316 µM): 86.6% | viability, T/C (second compound 1 µM, first compound 0.001 µM): 83.3% | viability, T/C [13]: 95.1% | viability, T/C [14]: 86.8% | viability, T/C [15]: 26.7% | viability, T/C [16]: 16% | viability, T/C (second compound 3.16 µM, first compound 0.000316 µM): 84.9% | viability, T/C (second compound 3.16 µM, first compound 0.001 µM): 87.7% | viability, T/C [17]: 93.3% | viability, T/C [18]: 87% | viability, T/C [19]: 23% | viability, T/C [20]: 17.2% | viability, T/C (second compound 10 µM, first compound 0.000316 µM): 97.7% | viability, T/C (second compound 10 µM, first compound 0.001 µM): 95% | viability, T/C [21]: 86.4% | viability, T/C [22]: 70.6% | viability, T/C [23]: 22.1% | viability, T/C [24]: 17.8%
